These results are taken from patent publication US6992085B2, “Octahydro-2H-pyrido[1,2-a]pyrazine compounds” (Les Laboratories Servier, priority 2001, dated 2006).

This experiment deals with T1, type H3 central histamine receptors (Mus musculus, UniProt P58406).
T1 construct: from tissue
Kind of experiment: Cerebral dosages of N^t-methylhistamine in the NMRI mouse (ex vivo, RIA). The conditions noted are these: NMRI mice, brain one hour after treatment, versus carrier controls. The protocol:
The purpose of this study, which was carried out in accordance with the method of Taylor et al. (Biochem. […] An increase in the cerebral concentrations of N^t-methylhistamine indicates an increase in the turn-over of histamine by blockage of the type H3 central histamine receptors. […] One hour after the pharmacological treatment, the animals are sacrificed, and their brains are removed, frozen in liquid nitrogen, weighed and homogenised in 0.1N HClO4 at 4° C. […] The supernatants are recovered and divided into aliquots. The aliquots are frozen in liquid nitrogen and stored at −80° C. until analysis. Determination of the cerebral levels of N^t-methylhistamine is carried out by radioimmunological assay (RIA) using an assay kit. The tissue levels of N^t-methylhistamine are expressed in μg/g of fresh brain. The comparison of the cerebral levels of N^t-methylhistamine between animals treated with the carrier (controls) and animals treated with compounds of the present invention is carried out by single factor variance analysis followed, if necessary, by a complementary analysis (Dunnett test).

T1 sequence (P58406 whole entry): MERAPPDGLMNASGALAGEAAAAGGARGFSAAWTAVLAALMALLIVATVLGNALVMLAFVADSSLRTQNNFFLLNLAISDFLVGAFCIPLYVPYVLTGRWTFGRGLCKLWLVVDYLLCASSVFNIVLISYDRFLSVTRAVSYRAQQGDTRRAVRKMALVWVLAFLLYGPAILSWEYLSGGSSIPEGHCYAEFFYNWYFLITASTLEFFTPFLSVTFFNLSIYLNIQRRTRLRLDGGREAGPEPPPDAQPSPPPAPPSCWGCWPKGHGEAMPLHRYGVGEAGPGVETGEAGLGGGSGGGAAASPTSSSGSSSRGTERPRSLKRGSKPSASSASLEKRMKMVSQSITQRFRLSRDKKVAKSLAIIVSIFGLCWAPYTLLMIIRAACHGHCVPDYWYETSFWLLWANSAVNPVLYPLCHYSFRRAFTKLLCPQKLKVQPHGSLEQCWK

As to `N#Cc1ccc(OCCCN2CCN3CCCCC3C2)cc1.O=C(O)/C=C/C(=O)O.O=C(O)/C=C/C(=O)O` (single isomer, unassigned) [Example 58, 4-(3-octahydro-2H-pyrido[1,2-a]pyrazin-2-ylpropoxy)benzonitrile difumarate, enantiomer β], the “increase in endogenous cerebral concentrations of N^t-methylhistamine” value (“increase” for short) (10 mg/kg IP, 10 mg/kg) is 236%.
`Cl.Cl.Cl.c1ccc2c(c1)ncn2CCCCN1CCN2CCCCC2C1` (stereo not shown) [Example 53, 2-[4-(1H-Benzimidazol-1-yl)butyl]octahydro-2H-pyrido[1,2-a]pyrazine trihydrochloride]: for the setting “30 mg/kg IP”, the “increase” value stood at 89%.
`Cl.Cl.c1ccc2c(c1)cnn2CCCCN1CCN2CCCCC2C1` (stereo not shown) [Example 55, 2-[4-(1H-Indazol-1-yl)butyl]octahydro-2H-pyridol[1,2-a]pyrazine dihydrochloride]: the “increase” value (30 mg/kg IP) is reported as 124%.
`N#Cc1ccc(OCCCN2CCN3CCCCC3C2)cc1.O=C(O)/C=C/C(=O)O.O=C(O)/C=C/C(=O)O` (stereo not shown) [Example 56, 4-(3-Octahydro-2H-pyrido[1,2-a]pyrazin-2-ylpropoxy)benzonitrile difumarate]: the “increase” value (10 mg/kg IP, difumarate, 10 mg/kg) is given as 252%.
